Consider 16 molecules from patent US20240277706A1, “METHODS AND COMPOSTITIONS FOR TARGETING PD-L1” (Aligos Therapeutics, Inc., priority 2023, published 2024).

One test deals with PD-1/PD-L1 (Homo sapiens, UniProt Q9NZQ7). Description: PDL1/PD1 Binding Assay. Particulars: PDL1-6×His 0.3 nM, PD1-Fc-Avi-Biotin 2.5 nM, acceptor/donor beads, Envision reader; read-out: PD-1/PD-L1 PPI IC50. The protocol:
Compounds to be tested were serially diluted in DMSO, and further diluted in assay buffer (25 mM Hepes pH 7.4, 150 mM NaCl, 0.005% Tween 20, BSA 0.01%). Diluted compounds were added to the wells with final concentration of DMSO at 1%. PDL1-6×His protein was added to the wells, mixed well with compound. The plates were incubated for 30 min at room temperature. PD1-Fc-Avi-Biotin protein was added to the wells. Final concentration of PDL1 and PD1 protein is 0.3 nM and 2.5 nM, respectively. After a binding time of 30 min at room temperature, Anti-6×His Acceptor beads (final concentration 20 ug/ml) were added to the wells, and the incubation continued for 1 h. Streptavidin Donor beads (final concentration 20 ug/mL) were added at reduced light. The plates were sealed with foil and incubated in the dark for additional 1 h or overnight before reading on an Envision reader. The IC50 values were determined by fitting the curves using a four-parameter equation in Graphpad Prism 8.

A further test has as its target T1, PD-1/PD-L1 interaction (Homo sapiens, UniProt Q9NZQ7).
T1 construct: expressed in transfected cells; Jurkat cells (PD-1 and NFAT-luciferase)
Description: PD-1/PD-L1 NFAT Reporter Assay (Jurkat/CHO co-culture). Type of test: cell-based. Conditions: Jurkat cells overexpressing PD-1 with NFAT luciferase, co-culture with PD-L1 expressing CHO cells, 6 hrs at 37° C. The protocol:
Blocking the PD-1/PD-L1 interaction will release the inhibitory signal and results in TCR signaling and NFAT-mediated luciferase activity.
CHO cells expressing surface-bound anti-CD3 antibodies and PD-L1 were first seeded overnight and treated with the compounds. Jurkat cells overexpressing PD-1 and a luciferase construct under NFAT promoter were then immediately seeded on the monolayer of CHO cells. The co-culture was then incubated for 6 hrs at 37° C. Luciferase activity was assessed by adding the ONE-Glo reagent and measuring luminescence with a plate reader. EC50 values were determined from the fit of the dose-response curves.
(In general: A reporter such as luciferase makes a cellular process visible.)

The term EC50 denotes the concentration giving half of the maximal effect. Read a low EC50 as greater potency.

PD-1/PD-L1, sequence (Q9NZQ7 19-238 limits assumed): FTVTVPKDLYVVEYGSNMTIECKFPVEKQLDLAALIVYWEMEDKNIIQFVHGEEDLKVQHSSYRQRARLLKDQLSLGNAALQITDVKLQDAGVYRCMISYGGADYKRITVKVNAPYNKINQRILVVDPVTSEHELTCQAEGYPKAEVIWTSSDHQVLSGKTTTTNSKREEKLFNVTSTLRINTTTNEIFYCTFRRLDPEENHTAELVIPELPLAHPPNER
T1 sequence (Q9NZQ7 19-290): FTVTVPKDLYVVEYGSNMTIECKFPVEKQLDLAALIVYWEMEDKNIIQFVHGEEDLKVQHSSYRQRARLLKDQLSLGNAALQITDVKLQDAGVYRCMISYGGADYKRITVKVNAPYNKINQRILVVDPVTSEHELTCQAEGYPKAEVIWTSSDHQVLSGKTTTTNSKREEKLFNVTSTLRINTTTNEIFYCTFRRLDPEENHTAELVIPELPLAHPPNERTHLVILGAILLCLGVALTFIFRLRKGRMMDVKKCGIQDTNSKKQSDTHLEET

Regarding `COc1nc(-c2cccc(-c3cccc(NC(=O)c4ccnn(C)c4=O)c3Cl)c2Cl)ccc1CN1CCC(F)(C(=O)O)CC1` [Compound C-97], on PD-1/PD-L1, the IC50 is ≤ 10 nM. In addition, at PD-1/PD-L1 interaction, the EC50 was 10 to 100 nM.
Taken in the same sequence, the figures for `COc1nc(-c2cccc(-c3cccc(NC(=O)c4ccnn(C)c4=O)c3Cl)c2Cl)ccc1CN1CCC(OC)(C(=O)O)CC1` [Compound C-98] were ≤ 10 nM and 10 to 100 nM.
For the molecule `COc1nc(-c2cccc(-c3cccc(NC(=O)c4ccnn(C)c4=O)c3C)c2Cl)cnc1CN1CCC(C(=O)O)CC1` [Compound C-105], on PD-1/PD-L1, the IC50 was ≤ 10 nM. At PD-1/PD-L1 interaction, this molecule gave an EC50 of 10 to 100 nM.
In the same order, the values of `COc1nc(-c2cccc(-c3cccc(NC(=O)c4ccnn(C)c4=O)c3C)c2Cl)ccc1CN1CCC(C(=O)O)CC1` [Compound C-103] are ≤ 10 nM and 10 to 100 nM.
As to `COc1nc(-c2cccc(-c3cccc(NC(=O)c4ccnn(C)c4=O)c3Cl)c2Cl)ccc1CN1CCC(O)(C(=O)O)CC1` [Compound C-106], the EC50 at PD-1/PD-L1 interaction lay in the range of 10 to 100 nM.
Turning to `COc1nc(-c2cccc(-c3cccc(NC(=O)c4ccnn(C)c4=O)c3Cl)c2Cl)ccc1CN1CC2CCC(C1)C2C(=O)O` (stereo not drawn) [Compound C-99], the EC50 at PD-1/PD-L1 interaction was 100 to 1000 nM.
Regarding `COc1nc(-c2cccc(-c3cccc(NC(=O)c4ccnn(C)c4=O)c3Cl)c2Cl)ccc1CN1C[C@@H]2[C@H](C1)[C@H]2C(=O)O` [Compound C-100], at PD-1/PD-L1, the IC50 was ≤ 10 nM. In addition, the EC50 on PD-1/PD-L1 interaction fell in the range of 10 to 100 nM.
For the molecule `CCOC(=O)C1CCN(Cc2ncc(-c3cccc(-c4cccc(NC(=O)c5ccnn(C)c5=O)c4Cl)c3Cl)nc2OC)CC1` [Compound C-107], the IC50 on PD-1/PD-L1 was ≤ 10 nM. At PD-1/PD-L1 interaction, this molecule yielded an EC50 of 10 to 100 nM.
In the same order, the values of `COc1nc(-c2cccc(-c3cccc(NC(=O)c4ccnn(C)c4=O)c3Cl)c2Cl)ccc1CN1CCC(C(=O)O)CC1` [Compound C-43] are ≤ 10 nM and 10 to 100 nM.
On to `COc1nc(-c2cccc(-c3cccc(NC(=O)c4ccnn(C)c4=O)c3Cl)c2Cl)ccc1CN1CCC2(C(=O)O)CC2C1` (stereo not drawn) [Compound C-101], for which, at PD-1/PD-L1, the IC50 was ≤ 10 nM. The EC50 at PD-1/PD-L1 interaction was 10 to 100 nM.
In the same order, the values of `COc1nc(-c2cccc(-c3cccc(NC(=O)c4ccnn(C)c4=O)c3Cl)c2Cl)ccc1CN1CC2CC(C1)C2C(=O)O` (stereo not drawn) [Compound C-102] are ≤ 10 nM and 10 to 100 nM.
In the same order, the values of `COc1nc(-c2cccc(-c3cccc(NC(=O)c4ccnn(C)c4=O)c3Cl)c2Cl)ccc1CN1CCC(c2nnn[nH]2)CC1` [Compound C-95] are ≤ 10 nM and 10 to 100 nM.
`COc1nc(-c2cccc(-c3cccc(NC(=O)c4ccnn(C)c4=O)c3Cl)c2Cl)ccc1CN1CC(c2nnn[nH]2)C1` [Compound C-26]: the IC50 on PD-1/PD-L1 is ≤ 10 nM. For the same molecule, the EC50 at PD-1/PD-L1 interaction lay in the range of 10 to 100 nM.
Take `COc1nc(-c2cccc(-c3cccc(NC(=O)c4ccnn(C)c4=O)c3Cl)c2Cl)cnc1CN1CCC(C(=O)O)CC1` [Compound C-104]: on PD-1/PD-L1, the IC50 was ≤ 10 nM. Besides, at PD-1/PD-L1 interaction, the EC50 lay within 10 to 100 nM.
Turning to `COc1nc(-c2cccc(-c3cccc(NC(=O)c4ccnn(C)c4=O)c3Cl)c2Cl)ccc1CN1CCC(C)(C(=O)O)CC1` [Compound C-96], on PD-1/PD-L1, the IC50 is ≤ 10 nM. At PD-1/PD-L1 interaction, this molecule had an EC50 of 10 to 100 nM.
On to `CCOC(=O)C1CCN(Cc2ccc(-c3cccc(-c4cccc(NC(=O)c5ccnn(C)c5=O)c4Cl)c3Cl)nc2OC)CC1` [Compound C-51], for which the IC50 at PD-1/PD-L1 is ≤ 10 nM. In addition, the “Jurkat NFAT EC50” value at PD-1/PD-L1 interaction is on record as “n.r”.
